Source: patent US20200352947A1, “USE OF SEROTONERGIC DRUGS TO TREAT VIRUS-INDUCED THROMBOCYTOPENIA” (NATIONAL UNIVERSITY OF SINGAPORE, priority 2017, published 2020)

Experiments:
DENV2-infected mice [1] = assay: Platelet counts (thrombocytopenia) in DENV2-infected WT mice; format: in vivo; details: mice, 10^6 pfu DENV2 IP; WAY-100135 3 mg/kg, ketanserin 8 mg/kg or sarpogrelate 3 mg/kg; 24 hours post-infection; n=5
Description: Platelet counts of DENV2 infected mice. Mice were infected via intraperitoneal route (IP) with 10^6 plaque forming units (pfu) and were given either vehicle (1% DMSO) or ketanserin 8 mg/kg IP. Blood was taken via cheek bleed 24 hours post-infection and platelet counts were measured using an automated hematology analyzer. DENV2 infection induces thrombocytopenia, but ketanserin treatment is able to prevent thrombocytopenia (n=5). Mean values are presented and error bars represent the SEM. P values were determined by Student's unpaired t test; ***P<0.001, ****P<0.0001.
Platelet counts of DENV2 infected mice. Mice were infected IP with 10^6 pfu of DENV2 and were given either vehicle, the 5HT1A antagonist WAY-100135, or either of the 5HT2A antagonists, ketanserin and sarpogrelate. Blood was taken via cheek bleed 24 hours post-infection and platelet counts were measured using an automated hematology analyzer. DENV2 infection induced thrombocytopenia that was able to be prevented through administration of serotonin receptor antagonists (n=5). Mean values are presented and error bars represent the SEM. P values were determined by one-way ANOVA; ***p<0.001, ****P<0.0001.
WT mice were infected via intraperitoneal route (IP) with 10^6 plaque forming units (pfu) of DENV2 and were given either vehicle (1% DMSO) or ketanserin (8 mg/kg) IP. Blood was taken via cheek bleed 24 hours post-infection and platelet counts were measured using an automated hematology analyzer.
One limitation of the experimental protocol in Examples 10 and 11 is that the vehicle used to deliver ketanserin in mice, DMSO, can itself interfere with platelet aggregation [Rosenblum, W. I. & El-Sabban. F. Stroke 13, 35-39 (1982)]. This difference can be observed by comparing the severity of thrombocytopenia in dengue-infected mice between FIGS. 1 and 10. Accordingly, newer serotonin receptor antagonists that are more soluble in saline were tested, to determine whether a similar effect is seen even without the confounding effects of DMSO. Mice were infected IP with 10^6 pfu of DENV2 and were given either vehicle, the 5HT1A antagonist WAY-100135 (3 mg/kg), or one of the 5HT2A antagonists ketanserin (8 mg/kg) or sarpogrelate (3 mg/kg). Blood was taken via cheek bleed 24 hours post-infection and platelet counts were measured using an automated hematology analyzer.

DENV2-infected mice [2] = assay: Platelet counts and platelet activation in DENV2-infected mice pretreated with fluoxetine; format: in vivo; details: fluoxetine 20 mg/kg/day in drinking water for 2 weeks, then 10^6 pfu DENV2 IP; 24 and 72 hours; n=5
Description: Mice were administered fluoxetine (20 mg/kg/day) or vehicle via drinking water for 2 weeks. Mice were then infected with 10^6 pfu of DENV2 intraperitoneally. At 24 and 72 hours, blood was collected and platelet counts were measured. The reduction in platelet counts and increased platelet activation induced by DENV was prevented by fluoxetine treatment (n=5). Mean values are presented and error bars represent the SEM. P values were determined by one-way ANOVA; *P<0.05, **P<0.01, ***P<0.001, ****P<0.0001.
Fluoxetine, an SSRI, prevents the uptake of serotonin into platelets. Activation of platelets by DENV (FIG. 3), will result in the release of stored serotonin, which can act in a positive feedback loop. Mice were treated with fluoxetine (20 mg/kg/day) or vehicle in drinking water for 2 weeks and infected with 10^6 pfu of DENV IP. At 24 and 72 hours, blood was collected and platelet counts were measured. The reduction in platelet counts and increased platelet activation induced by DENV was inhibited by fluoxetine treatment (FIG. 15).

DENV2-infected Sash mice = assay: Exogenous serotonin in DENV2-infected mast cell-deficient (Sash) mice; format: in vivo; details: serotonin 150 mg/kg daily
Description: (A) Sash mice were infected with DENV2 and treated with 150 mg/kg of serotonin or vehicle daily. Blood was taken for analysis 3 days post-infection. […] (C) Representative eosin and methylene blue staining of peripheral blood smears day 3 post-infection. Some individual platelets are indicated by arrows. Platelet aggregates are surrounded by a dashed line. Scale bar=25 μm. Means are presented with error bars representing the SEM. P values were determined by Student's unpaired t test; ns: non-significant, **P<0.01, ***P<0.001.

DENV2-infected WT mice = assay: Exogenous serotonin in DENV2-infected and uninfected WT mice; format: in vivo; details: serotonin 150 mg/kg daily
Description: (A) WT mice were infected with DENV2 (1×10^6 pfu i.p.) and treated with 150 mg/kg of serotonin or vehicle daily. […] (B) Blood of DENV infected mice treated with serotonin or vehicle was isolated and stained for platelet marker CD41 and activation marker CD62P and analyzed by flow cytometry. […] (C) Representative peripheral blood smears, day 3 post-infection, show platelet aggregation (dashed lines), which was more visually apparent following exogenous serotonin treatment compared to DENV infection. Some individual platelets are indicated by arrows. Scale bar=25 μm. Mean values are presented and error bars represent the SEM. P values were determined by Student's unpaired t test; *P<0.05, ns: non-significant.
WT mice were infected with DENV and administered exogenous serotonin to determine if there was an increase in platelet activation mediated by serotonin and if this would worsen thrombocytopenia in vivo.

human platelets = assay: Platelet activation (CD41/CD62P flow cytometry) in stimulated human whole blood; format: cell-based; details: 15 min stimulation; CD41/CD62P flow cytometry; n=4
Description: (A) Whole blood from healthy human volunteers was isolated and stimulated with DENV2, serotonin, or DENV2+serotonin for 15 min. Cells were then fixed and stained for platelet markers CD41 and CD62P and analyzed by flow cytometry. DENV raised the activation levels of platelets. […] (B) Human whole blood was stimulated with DENV2, mast cells (MCs) or DENV2+MCs in the presence of vehicle or ketanserin (100 nM or 500 nM) for 15 min prior to assessment of platelet activation. […] Mean values are presented and error bars represent the SEM. P values were determined by one-way ANOVA; *P<0.05, ** P<0.01, ***P<0.001, ****P<0.0001, ns: non-significant.
Additionally, products from DENV-stimulated human mast cells promoted platelet activation, dependent on platelet 5HT2A receptor, since this effect was abolished by ketanserin (FIG. 9B). […] Furthermore, ketanserin is effective in reversing DENV-induced human platelet activation.

## COc1ccccc1N1CCN(C[C@@H](C(=O)NC(C)(C)C)c2ccccc2)CC1 [WAY-100135, (S)-N-tert-butyl-3-(4-(2-methoxyphenyl)-piperazin-1-yl)-2-phenylpropanamide]
DENV2-infected mice [1]
  platelet counts (DENV2-induced thrombocytopenia): prevented

## CNCCC(Oc1ccc(C(F)(F)F)cc1)c1ccccc1 (stereo not shown) [fluoxetine]
DENV2-infected mice [2]
  increased platelet activation induced by DENV: inhibited
  reduction in platelet counts induced by DENV: inhibited

## COc1cccc(CCc2ccccc2OCC(CN(C)C)OC(=O)CCC(=O)O)c1 (stereo not shown) [sarpogrelate, 4-[1-(dimethylamino)-3-[2-[2-(3-methoxyphenyl)ethyl]phenoxy]propan-2-yl]oxy-4-oxobutanoic acid]
DENV2-infected mice [1]
  platelet counts (DENV2-induced thrombocytopenia): prevented

## NCCc1c[nH]c2ccc(O)cc12 [serotonin]
DENV2-infected Sash mice; 3 days post-infection
  circulating platelet counts: significantly reduced circulating platelet counts compared to vehicle (mock)-treated animals
DENV2-infected Sash mice; 3 days post-infection, n=5-8
  platelet activation: increased platelet activation in infected mice compared to vehicle treated controls
DENV2-infected Sash mice; day 3 post-infection
  platelet aggregates in peripheral blood films: increased platelet aggregates
DENV2-infected WT mice; DENV2-infected WT mice, day 3 post-infection
  platelet aggregates in peripheral blood films: platelet aggregates increased
DENV2-infected WT mice; DENV2-infected WT mice, n=6-12
  platelet activation (CD41/CD62P) in infected mice: further increased
DENV2-infected WT mice; WT mice, DENV2 1×10^6 pfu i.p., 3 days post-infection
  platelet counts (thrombocytopenia) in infected mice: worsened thrombocytopenia during DENV infection compared to vehicle-treated mice
DENV2-infected WT mice; uninfected WT mice
  platelet activation (CD41/CD62P) in uninfected mice: did not result in platelet activation in uninfected mice
  platelet counts in uninfected mice: did not affect platelet counts in uninfected WT mice
Human platelets
  platelet activation in human whole blood stimulated with DENV2+serotonin: significantly enhanced platelet activation over control and DENV groups
